pIC50: −log10 of the molar value. Starred links: 1 amine or outer side, 2 acyl side, 3 side chain; linkers in the order of their positions; H or OH if unused. Positions of bridges follow the written chain, without caps; N, C: chain ends. Non-standard residues stand in square brackets, D forms with d. Residues, ends and D or L forms follow the SMILES beside them. *: point of attachment. Bip(4'-NHCO-C6H4-3-CH2COOH) = N[C@@H](Cc1ccc(-c2ccc(NC(=O)c3cccc(CC(=O)O)c3)cc2)cc1)C(=O)O; Bip(4'-NHCO-C6H4-4-CH2COOH) = N[C@@H](Cc1ccc(-c2ccc(NC(=O)c3ccc(CC(=O)O)cc3)cc2)cc1)C(=O)O; dArg(Nω-CH2C6H4-3-CH2Gua) = N=C(N)NCc1cccc(CNC(=N)NCCC[C@@H](N)C(=O)O)c1; Bip(4'-NH) = O=C([C@H](Cc1ccc(-c2ccc(N[*:3])cc2)cc1)N[*:1])[*:2]; dArg(ω-(3-HO-benzyl)) = N=C(NCCC[C@@H](N)C(=O)O)NCc1cccc(O)c1; Indazole3carbonyl(1-CH2COOH) = O=C(O)Cn1nc(C(=O)*)c2ccccc21; Bip(4'-COOH) = N[C@@H](Cc1ccc(-c2ccc(C(=O)O)cc2)cc1)C(=O)O; Indole3carbonyl(1-CH2COOH) = O=C(O)Cn1cc(C(=O)*)c2ccccc21; Ala(imidazol-2-yl) = N[C@@H](Cc1ncc[nH]1)C(=O)O; Ala(morpholin-4-yl) = N[C@@H](CN1CCOCC1)C(=O)O; Benzoyl(3-OCH2COOH) = O=C(O)COc1cccc(C(=O)*)c1; Bip = N[C@@H](Cc1ccc(-c2ccccc2)cc1)C(=O)O; 2Pal = N[C@@H](Cc1ccccn1)C(=O)O; Tic = O=C(O)[C@@H]1Cc2ccccc2CN1; Cha = N[C@@H](CC1CCCCC1)C(=O)O; Sar = CNCC(=O)O
What follows are compounds tested against TNFα (Homo sapiens, UniProt P01375) (assay: TNF-Induced HEK-Blue Assay). Details: not given.
Assay type: cell-based

Sequence of TNFα (P01375 77-233 limits assumed): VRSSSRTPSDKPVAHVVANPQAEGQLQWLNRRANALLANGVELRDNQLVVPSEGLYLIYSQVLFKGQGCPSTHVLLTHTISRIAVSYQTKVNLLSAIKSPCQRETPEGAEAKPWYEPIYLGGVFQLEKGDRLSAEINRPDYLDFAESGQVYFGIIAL

SMILES | pIC50
CC(C)C[C@@H]1NC(=O)[C@H](Cc2ncc[nH]2)NC(=O)[C@H](C(C)C)NC(=O)[C@@H]2CCCN2C(=O)[C@H](C(C)C)NC(=O)[C@@H](CCCNC(=N)NCc2cccc(CNC(=N)N)c2)NC(=O)[C@H](CC(=O)O)NC(=O)[C@H](Cc2ccccn2)NC(=O)CN(C)C(=O)[C@H](Cc2ccc(-c3ccc(NC(=O)c4nn(CC(=O)O)c5ccccc45)cc3)cc2)NC(=O)[C@H](Cc2ccc(-c3ccc(C(=O)O)cc3)cc2)NC(=O)[C@H](CC2CCCCC2)NC(=O)CSC[C@@H](C(=O)NCC(N)=O)NC1=O [Example 556] ({CH2CO}-[Cha][Bip(4'-COOH)][Bip(4'-NH)](Indazole3carbonyl(1-CH2COOH))[Sar][2Pal]D[dArg(Nω-CH2C6H4-3-CH2Gua)]VPV[Ala(imidazol-2-yl)]LCG-NH2; thioether N-13) | > 7.30
CC(C)C[C@@H]1NC(=O)[C@H](Cc2ncc[nH]2)NC(=O)[C@H](C(C)C)NC(=O)[C@@H]2CCCN2C(=O)[C@H](C(C)C)NC(=O)[C@@H](CCCNC(=N)NCc2cccc(CNC(=N)N)c2)NC(=O)[C@H](CC(=O)O)NC(=O)[C@H](Cc2ccccn2)NC(=O)CN(C)C(=O)[C@H](Cc2ccc(-c3ccc(NC(=O)c4cn(CC(=O)O)c5ccccc45)cc3)cc2)NC(=O)[C@H](Cc2ccc(-c3ccc(C(=O)O)cc3)cc2)NC(=O)[C@H](CC2CCCCC2)NC(=O)CSC[C@@H](C(=O)NCC(N)=O)NC1=O [Example 557] ({CH2CO}-[Cha][Bip(4'-COOH)][Bip(4'-NH)](Indole3carbonyl(1-CH2COOH))[Sar][2Pal]D[dArg(Nω-CH2C6H4-3-CH2Gua)]VPV[Ala(imidazol-2-yl)]LCG-NH2; thioether N-13) | > 7.30
CC[C@H](C)[C@@H]1NC(=O)[C@@H](CCCNC(=N)NCc2cccc(O)c2)NC(=O)[C@H](CC(=O)O)NC(=O)[C@H](Cc2cnc[nH]2)NC(=O)CN(C)C(=O)[C@H](Cc2ccc(-c3ccc(NC(=O)c4nn(CC(=O)O)c5ccccc45)cc3)cc2)NC(=O)[C@H](Cc2ccc(-c3ccc(C(=O)O)cc3)cc2)NC(=O)[C@H](CC2CCCCC2)NC(=O)CSC[C@@H](C(=O)NCC(N)=O)NC(=O)[C@H](CC(C)C)NC(=O)[C@H](Cc2ncc[nH]2)NC(=O)[C@H](C(C)C)NC(=O)[C@@H]2Cc3ccccc3CN2C1=O [Example 561] ({CH2CO}-[Cha][Bip(4'-COOH)][Bip(4'-NH)](Indazole3carbonyl(1-CH2COOH))[Sar]HD[dArg(ω-(3-HO-benzyl))]I[Tic]V[Ala(imidazol-2-yl)]LCG-NH2; thioether N-13) | > 7.30
CC(C)C[C@@H]1NC(=O)[C@H](CCCNC(=N)N)NC(=O)[C@H](C(C)C)NC(=O)[C@@H]2CCCN2C(=O)[C@H](C(C)C)NC(=O)[C@@H](CCCNC(=N)NCc2cccc(O)c2)NC(=O)[C@H](CC(=O)O)NC(=O)[C@@H]2CCCN2C(=O)CN(C)C(=O)[C@H](Cc2ccc(-c3ccc(NC(=O)c4cn(CC(=O)O)c5ccccc45)cc3)cc2)NC(=O)[C@H](Cc2ccc(-c3ccccc3)cc2)NC(=O)[C@H](CN2CCOCC2)NC(=O)CSC[C@@H](C(=O)NCC(N)=O)NC1=O [Example 565] ({CH2CO}-[Ala(morpholin-4-yl)][Bip][Bip(4'-NH)](Indole3carbonyl(1-CH2COOH))[Sar]PD[dArg(ω-(3-HO-benzyl))]VPVRLCG-NH2; thioether N-13) | > 7.30

Same assay, conditions: HEK-Blue-CD40L cells, NF-kB-driven secreted alkaline phosphatase reporter; TNFα 0.5 ng/ml; 18 h; read-out: TNF induced HEK-Blue assay IC50 value

SMILES | pIC50
CC(C)C[C@@H]1NC(=O)[C@H](Cc2ncc[nH]2)NC(=O)[C@H](C(C)C)NC(=O)[C@@H]2CCCN2C(=O)[C@H](C(C)C)NC(=O)[C@@H](CCCNC(=N)NCc2cccc(O)c2)NC(=O)[C@H](CC(=O)O)NC(=O)[C@H](Cc2ccccn2)NC(=O)CN(C)C(=O)[C@H](Cc2ccc(-c3ccc(NC(=O)c4cccc(CC(=O)O)c4)cc3)cc2)NC(=O)[C@H](Cc2ccc(-c3ccc(C(=O)O)cc3)cc2)NC(=O)[C@H](CC2CCCCC2)NC(=O)CSC[C@@H](C(=O)NCC(N)=O)NC1=O [Example 553] ({CH2CO}-[Cha][Bip(4'-COOH)][Bip(4'-NHCO-C6H4-3-CH2COOH)][Sar][2Pal]D[dArg(ω-(3-HO-benzyl))]VPV[Ala(imidazol-2-yl)]LCG-NH2; thioether N-13) | 6.70 to 7.30
CC(C)C[C@@H]1NC(=O)[C@H](Cc2ncc[nH]2)NC(=O)[C@H](C(C)C)NC(=O)[C@@H]2CCCN2C(=O)[C@H](C(C)C)NC(=O)[C@@H](CCCNC(=N)NCc2cccc(O)c2)NC(=O)[C@H](CC(=O)O)NC(=O)[C@H](Cc2ccccn2)NC(=O)CN(C)C(=O)[C@H](Cc2ccc(-c3ccc(NC(=O)c4ccc(CC(=O)O)cc4)cc3)cc2)NC(=O)[C@H](Cc2ccc(-c3ccc(C(=O)O)cc3)cc2)NC(=O)[C@H](CC2CCCCC2)NC(=O)CSC[C@@H](C(=O)NCC(N)=O)NC1=O [Example 554] ({CH2CO}-[Cha][Bip(4'-COOH)][Bip(4'-NHCO-C6H4-4-CH2COOH)][Sar][2Pal]D[dArg(ω-(3-HO-benzyl))]VPV[Ala(imidazol-2-yl)]LCG-NH2; thioether N-13) | > 7.30
CC(C)C[C@@H]1NC(=O)[C@H](Cc2ncc[nH]2)NC(=O)[C@H](C(C)C)NC(=O)[C@@H]2CCCN2C(=O)[C@H](C(C)C)NC(=O)[C@@H](CCCNC(=N)NCc2cccc(O)c2)NC(=O)[C@H](CC(=O)O)NC(=O)[C@H](Cc2ccccn2)NC(=O)CN(C)C(=O)[C@H](Cc2ccc(-c3ccc(NC(=O)c4cccc(OCC(=O)O)c4)cc3)cc2)NC(=O)[C@H](Cc2ccc(-c3ccc(C(=O)O)cc3)cc2)NC(=O)[C@H](CC2CCCCC2)NC(=O)CSC[C@@H](C(=O)NCC(N)=O)NC1=O [Example 555] ({CH2CO}-[Cha][Bip(4'-COOH)][Bip(4'-NH)](Benzoyl(3-OCH2COOH))[Sar][2Pal]D[dArg(ω-(3-HO-benzyl))]VPV[Ala(imidazol-2-yl)]LCG-NH2; thioether N-13) | > 7.30
CC(C)C[C@@H]1NC(=O)[C@H](Cc2ncc[nH]2)NC(=O)[C@H](C(C)C)NC(=O)[C@@H]2CCCN2C(=O)[C@H](C(C)C)NC(=O)[C@@H](CCCNC(=N)NCc2cccc(CNC(=N)N)c2)NC(=O)[C@H](CC(=O)O)NC(=O)[C@H](Cc2ccccn2)NC(=O)CN(C)C(=O)[C@H](Cc2ccc(-c3ccc(NC(=O)c4cccc(CC(=O)O)c4)cc3)cc2)NC(=O)[C@H](Cc2ccc(-c3ccc(C(=O)O)cc3)cc2)NC(=O)[C@H](CC2CCCCC2)NC(=O)CSC[C@@H](C(=O)NCC(N)=O)NC1=O [Example 558] ({CH2CO}-[Cha][Bip(4'-COOH)][Bip(4'-NHCO-C6H4-3-CH2COOH)][Sar][2Pal]D[dArg(Nω-CH2C6H4-3-CH2Gua)]VPV[Ala(imidazol-2-yl)]LCG-NH2; thioether N-13) | > 7.30
CC(C)C[C@@H]1NC(=O)[C@H](Cc2ncc[nH]2)NC(=O)[C@H](C(C)C)NC(=O)[C@@H]2CCCN2C(=O)[C@H](C(C)C)NC(=O)[C@@H](CCCNC(=N)NCc2cccc(CNC(=N)N)c2)NC(=O)[C@H](CC(=O)O)NC(=O)[C@H](Cc2ccccn2)NC(=O)CN(C)C(=O)[C@H](Cc2ccc(-c3ccc(NC(=O)c4ccc(CC(=O)O)cc4)cc3)cc2)NC(=O)[C@H](Cc2ccc(-c3ccc(C(=O)O)cc3)cc2)NC(=O)[C@H](CC2CCCCC2)NC(=O)CSC[C@@H](C(=O)NCC(N)=O)NC1=O [Example 559] ({CH2CO}-[Cha][Bip(4'-COOH)][Bip(4'-NHCO-C6H4-4-CH2COOH)][Sar][2Pal]D[dArg(Nω-CH2C6H4-3-CH2Gua)]VPV[Ala(imidazol-2-yl)]LCG-NH2; thioether N-13) | > 7.30
CC(C)C[C@@H]1NC(=O)[C@H](Cc2ncc[nH]2)NC(=O)[C@H](C(C)C)NC(=O)[C@@H]2CCCN2C(=O)[C@H](C(C)C)NC(=O)[C@@H](CCCNC(=N)NCc2cccc(CNC(=N)N)c2)NC(=O)[C@H](CC(=O)O)NC(=O)[C@H](Cc2ccccn2)NC(=O)CN(C)C(=O)[C@H](Cc2ccc(-c3ccc(NC(=O)c4cccc(OCC(=O)O)c4)cc3)cc2)NC(=O)[C@H](Cc2ccc(-c3ccc(C(=O)O)cc3)cc2)NC(=O)[C@H](CC2CCCCC2)NC(=O)CSC[C@@H](C(=O)NCC(N)=O)NC1=O [Example 560] ({CH2CO}-[Cha][Bip(4'-COOH)][Bip(4'-NH)](Benzoyl(3-OCH2COOH))[Sar][2Pal]D[dArg(Nω-CH2C6H4-3-CH2Gua)]VPV[Ala(imidazol-2-yl)]LCG-NH2; thioether N-13) | > 7.30
CC[C@H](C)[C@@H]1NC(=O)[C@@H](CCCNC(=N)NCc2cccc(O)c2)NC(=O)[C@H](CC(=O)O)NC(=O)[C@H](Cc2cnc[nH]2)NC(=O)CN(C)C(=O)[C@H](Cc2ccc(-c3ccc(NC(=O)c4cccc(CC(=O)O)c4)cc3)cc2)NC(=O)[C@H](Cc2ccc(-c3ccc(C(=O)O)cc3)cc2)NC(=O)[C@H](CC2CCCCC2)NC(=O)CSC[C@@H](C(=O)NCC(N)=O)NC(=O)[C@H](CC(C)C)NC(=O)[C@H](Cc2ncc[nH]2)NC(=O)[C@H](C(C)C)NC(=O)[C@@H]2Cc3ccccc3CN2C1=O [Example 562] ({CH2CO}-[Cha][Bip(4'-COOH)][Bip(4'-NHCO-C6H4-3-CH2COOH)][Sar]HD[dArg(ω-(3-HO-benzyl))]I[Tic]V[Ala(imidazol-2-yl)]LCG-NH2; thioether N-13) | 6.70 to 7.30
CC[C@H](C)[C@@H]1NC(=O)[C@@H](CCCNC(=N)NCc2cccc(O)c2)NC(=O)[C@H](CC(=O)O)NC(=O)[C@H](Cc2cnc[nH]2)NC(=O)CN(C)C(=O)[C@H](Cc2ccc(-c3ccc(NC(=O)c4ccc(CC(=O)O)cc4)cc3)cc2)NC(=O)[C@H](Cc2ccc(-c3ccc(C(=O)O)cc3)cc2)NC(=O)[C@H](CC2CCCCC2)NC(=O)CSC[C@@H](C(=O)NCC(N)=O)NC(=O)[C@H](CC(C)C)NC(=O)[C@H](Cc2ncc[nH]2)NC(=O)[C@H](C(C)C)NC(=O)[C@@H]2Cc3ccccc3CN2C1=O [Example 563] ({CH2CO}-[Cha][Bip(4'-COOH)][Bip(4'-NHCO-C6H4-4-CH2COOH)][Sar]HD[dArg(ω-(3-HO-benzyl))]I[Tic]V[Ala(imidazol-2-yl)]LCG-NH2; thioether N-13) | > 7.30
CC[C@H](C)[C@@H]1NC(=O)[C@@H](CCCNC(=N)NCc2cccc(O)c2)NC(=O)[C@H](CC(=O)O)NC(=O)[C@H](Cc2cnc[nH]2)NC(=O)CN(C)C(=O)[C@H](Cc2ccc(-c3ccc(NC(=O)c4cccc(OCC(=O)O)c4)cc3)cc2)NC(=O)[C@H](Cc2ccc(-c3ccc(C(=O)O)cc3)cc2)NC(=O)[C@H](CC2CCCCC2)NC(=O)CSC[C@@H](C(=O)NCC(N)=O)NC(=O)[C@H](CC(C)C)NC(=O)[C@H](Cc2ncc[nH]2)NC(=O)[C@H](C(C)C)NC(=O)[C@@H]2Cc3ccccc3CN2C1=O [Example 564] ({CH2CO}-[Cha][Bip(4'-COOH)][Bip(4'-NH)](Benzoyl(3-OCH2COOH))[Sar]HD[dArg(ω-(3-HO-benzyl))]I[Tic]V[Ala(imidazol-2-yl)]LCG-NH2; thioether N-13) | > 7.30
